From ChEMBL document CHEMBL4177607, “Antibacterial constituents of the plant family Amaryllidaceae” (2017)
In brackets after ≈: the same amount, converted by molar mass. Values belong to the molecule of their own block, whether it stands above or below them.

Columns and labels:
Assay type in all cases: functional
Shigella flexneri = assay: Antibacterial activity against Shigella flexneri after 24 hrs by broth microdilution method
Escherichia coli [1] = assay: Antibacterial activity against Escherichia coli after 24 hrs by broth microdilution method
Pseudomonas aeruginosa = assay: Antibacterial activity against Pseudomonas aeruginosa after 24 hrs by broth microdilution method
Flavobacterium columnare [2] = assay: Antibacterial activity against Flavobacterium columnare BioMed after 24 hrs
Flavobacterium columnare [3] = assay: Antibacterial activity against Flavobacterium columnare ALM-00-173 after 24 hrs; details: ALM-00-173, 24 h
Staphylococcus aureus [4] = assay: Antibacterial activity against Staphylococcus aureus
Edwardsiella ictaluri = assay: Antibacterial activity against Edwardsiella ictaluri after 24 hrs
Staphylococcus aureus [5] = assay: Antibacterial activity against Staphylococcus aureus assessed as diameter of inhibition zone at 1 mg/ml; details: read-out: DIZ
Escherichia coli [6] = assay: Antibacterial activity against Escherichia coli assessed as diameter of inhibition zone at 1 mg/ml; details: read-out: DIZ
Staphylococcus aureus [7] = assay: Antibacterial activity against Staphylococcus aureus assessed as diameter of inhibition zone at 3 mg/ml; details: read-out: DIZ
Escherichia coli [8] = assay: Antibacterial activity against Escherichia coli assessed as diameter of inhibition zone at 3 mg/ml; details: read-out: DIZ
Staphylococcus aureus [9] = assay: Antibacterial activity against Staphylococcus aureus incubated overnight by two-fold serial dilution method
Escherichia coli [10] = assay: Antibacterial activity against Escherichia coli incubated overnight by two-fold serial dilution method
[11] = system: Agrobacterium tumefaciens; assay: Antibacterial activity against Agrobacterium tumefaciens assessed as inhibition of crown gall tumor initiation at 1 mg/ml
Rhodococcus fascians = assay: Antibacterial activity against Corynebacterium fascians assessed as diameter of inhibition zone at 10 mM after 48 to 72 hrs by paper disc method; details: Rhodococcoides fascians; read-out: DIZ

- MIC (Flavobacterium columnare [2]): 28.8 µg/mL
- MIC (Flavobacterium columnare [3]): 5.2 µg/mL
SMILES: Cc1cccc(C(=O)O[C@H]2[C@H]3c4cc5c(cc4CN4CCC(=C[C@@H]2OC(=O)c2cccc(C)c2)[C@H]34)OCO5)c1

- MIC (Flavobacterium columnare [2]): 32 µg/mL
- MIC (Flavobacterium columnare [3]): 3 µg/mL
- MIC (Staphylococcus aureus [4]): > 32 µg/mL
- MIC (Edwardsiella ictaluri): > 32 µg/mL
SMILES: Cl.O[C@H]1[C@H]2c3cc4c(cc3CN3CCC(=C[C@@H]1O)[C@H]23)OCO4

- MIC (Flavobacterium columnare [2]): 100 µM
- MIC (Flavobacterium columnare [3]): 10 µM
SMILES: [O-]c1ccc2c3c1c1cc4c(cc1c[n+]3CC2)OCO4

- MIC (Flavobacterium columnare [2]): 100 µM
- MIC (Flavobacterium columnare [3]): 10 µM
SMILES: O=c1c2cc3c(cc2c2cccc4c2n1CC4)OCO3
- zone of inhibition at 10000 µM (Rhodococcus fascians): 25 mm

- MIC (Flavobacterium columnare [2]): 22.9 µg/mL
- MIC (Flavobacterium columnare [3]): 46.4 µg/mL
SMILES: Cc1ccccc1C(=O)O[C@H]1C=C2CCN3Cc4cc5c(cc4[C@H]([C@@H]1O)[C@@H]23)OCO5

- MIC (Flavobacterium columnare [2]): 22.9 µg/mL
- MIC (Flavobacterium columnare [3]): 46.4 µg/mL
SMILES: Cc1ccc(C(=O)O[C@H]2[C@H]3c4cc5c(cc4CN4CCC(=C[C@@H]2OC(=O)c2ccc(C)cc2)[C@H]34)OCO5)cc1

- MIC (Flavobacterium columnare [2]): > 70 µg/mL
- MIC (Flavobacterium columnare [3]): > 70 µg/mL
SMILES: C[N+]12CCC3=C[C@H](OC(=O)c4ccccc4Cl)[C@@H](OC(=O)c4ccccc4Cl)[C@@H](c4cc5c(cc4C1)OCO5)[C@@H]32.[I-] (some centres not stated)

- MIC (Flavobacterium columnare [2]): > 26 µg/mL
- MIC (Flavobacterium columnare [3]): > 26 µg/mL
- MIC (Staphylococcus aureus [4]): > 26 µg/mL
- MIC (Edwardsiella ictaluri): > 26 µg/mL
SMILES: O=C1C=C2CCN3Cc4cc5c(cc4[C@H]([C@@H]1O)[C@@H]23)OCO5

- MIC (Flavobacterium columnare [2]): > 37 µg/mL
- MIC (Flavobacterium columnare [3]): > 37 µg/mL
- MIC (Staphylococcus aureus [4]): > 37 µg/mL
- MIC (Edwardsiella ictaluri): > 37 µg/mL
SMILES: CC(=O)O[C@H]1[C@H]2c3cc4c(cc3CN3CC[C@H](C[C@@H]1OC(C)=O)[C@H]23)OCO4

- MIC (Staphylococcus aureus [4]): > 33 µg/mL
- MIC (Edwardsiella ictaluri): > 33 µg/mL
SMILES: CC(=O)O[C@H]1[C@H]2c3cc4c(cc3CN3CCC(=C[C@@H]1O)[C@H]23)OCO4

More lines, now with the values behind:

SMILES: Cc1c(O)c(C)c2c(c1O)C(=O)C[C@@H](c1ccc(O)cc1)O2 [FARREROL]
- MIC (Shigella flexneri): 2 µg/mL (≈ 6.66 µM)
- MIC (Escherichia coli [1]): 4 µg/mL (≈ 13.3 µM)
- MIC (Pseudomonas aeruginosa): 8 µg/mL (≈ 26.6 µM)

SMILES: O=C1N[C@@H]2C(=C[C@H](O)[C@@H](O)[C@H]2O)c2cc3c(cc21)OCO3
- zone of inhibition at 1000 µg/mL (Staphylococcus aureus [5]): 11 mm
- zone of inhibition at 1000 µg/mL (Escherichia coli [6]): 12 mm

SMILES: CC(=O)O[C@H]1[C@H]2c3cc4c(cc3CN3CCC(=C[C@@H]1OC(C)=O)[C@H]23)OCO4
- MIC (Flavobacterium columnare [2]): 37 µg/mL
- MIC (Flavobacterium columnare [3]): 4 µg/mL
- MIC (Staphylococcus aureus [4]): > 37 µg/mL
- MIC (Edwardsiella ictaluri): > 37 µg/mL

SMILES: O[C@@H]1C=C[C@]23c4cc5c(cc4C[N@@](C[C@@H]2O)[C@H]3C1)OCO5
- zone of inhibition at 3000 µg/mL (Staphylococcus aureus [7]): 17 mm

SMILES: COc1cc2c(cc1OC)[C@@H](O)O[C@@H]1CC=C3CCN(C)[C@H]3[C@H]21
- zone of inhibition at 1000 µg/mL (Staphylococcus aureus [5]): 14 mm
- zone of inhibition at 1000 µg/mL (Escherichia coli [6]): 15 mm

SMILES: COc1cc2c(c(O)c1C)C(=O)C(O)C(c1ccc(O)cc1)O2 (configuration not stated)
- MIC (Shigella flexneri): 4 µg/mL (≈ 12.6 µM)
- MIC (Escherichia coli [1]): 16 µg/mL (≈ 50.6 µM)
- MIC (Pseudomonas aeruginosa): 32 µg/mL (≈ 101 µM)

SMILES: O=C(O[C@H]1[C@H]2c3cc4c(cc3CN3CCC(=C[C@@H]1OC(=O)c1ccc(Cl)cc1)[C@H]23)OCO4)c1ccc(Cl)cc1
- MIC (Flavobacterium columnare [2]): 5.6 µg/mL
- MIC (Flavobacterium columnare [3]): 31 µg/mL

SMILES: COc1cc2c(cc1OC)[C@H]1[C@H]3C(=CC[C@H]1O[C@@H]2OC)CCN3C
- zone of inhibition at 1000 µg/mL (Staphylococcus aureus [5]): 14 mm
- zone of inhibition at 1000 µg/mL (Escherichia coli [6]): 14 mm

SMILES: O[C@@H]1C=C[C@]23CCN(Cc4cc5c(cc42)OCO5)[C@H]3C1 [VITTATINE]
- zone of inhibition at 3000 µg/mL (Staphylococcus aureus [7]): 19 mm
- zone of inhibition at 3000 µg/mL (Escherichia coli [8]): 22 mm

SMILES: COc1ccc2c3c1O[C@H]1C[C@@H](O)C=C[C@@]31CCN(C)C2 [GALANTAMINE]
- MIC (Staphylococcus aureus [9]): 2050 µg/mL (≈ 7130 µM)
- MIC (Escherichia coli [10]): 2050 µg/mL (≈ 7130 µM)

SMILES: CCCCCCCC(=O)Oc1c(C)c(O)c2c(c1C)O[C@H](c1ccc(O)cc1)CC2=O
- MIC (Shigella flexneri): 16 µg/mL (≈ 37.5 µM)
- MIC (Escherichia coli [1]): 16 µg/mL (≈ 37.5 µM)
- MIC (Pseudomonas aeruginosa): 32 µg/mL (≈ 75 µM)

SMILES: O=C1N[C@@H]2C(=C[C@H](O)[C@@H](O)[C@H]2O[C@@H]2O[C@H](CO)[C@@H](O)[C@H](O)[C@H]2O)c2cc3c(c(O)c21)OCO3
- inhibition at 1000 µg/mL [11]: 53%

SMILES: CCCCCCCC(=O)Oc1ccc([C@@H]2CC(=O)c3c(O)c(C)c(O)c(C)c3O2)cc1
- MIC (Shigella flexneri): 64 µg/mL (≈ 150 µM)
- MIC (Escherichia coli [1]): 32 µg/mL (≈ 75 µM)
- MIC (Pseudomonas aeruginosa): 16 µg/mL (≈ 37.5 µM)

SMILES: c1cc2c3c(c1)-c1cc4c(cc1CN3CC2)OCO4 [ANHYDROLYCORINE]
- zone of inhibition at 10000 µM (Rhodococcus fascians): 25 mm

SMILES: O=C(O[C@H]1[C@H]2c3cc4c(cc3CN3CCC(=C[C@@H]1OC(=O)c1cccc(Cl)c1)[C@H]23)OCO4)c1cccc(Cl)c1
- MIC (Flavobacterium columnare [2]): 5.6 µg/mL
- MIC (Flavobacterium columnare [3]): 5.6 µg/mL

SMILES: Cc1ccccc1NC(=O)O[C@H]1[C@H]2c3cc4c(cc3CN3CCC(=C[C@@H]1OC(=O)Nc1ccccc1C)[C@H]23)OCO4
- MIC (Flavobacterium columnare [2]): 5.5 µg/mL
- MIC (Flavobacterium columnare [3]): 5.5 µg/mL

SMILES: CC[C@H](CC[C@@H](C)[C@H]1CC[C@H]2[C@@H]3CC=C4C[C@@H](O)CC[C@]4(C)[C@H]3CC[C@]12C)C(C)C [BETA-SITOSTEROL]
- zone of inhibition at 1000 µg/mL (Staphylococcus aureus [5]): 15 mm
- zone of inhibition at 1000 µg/mL (Escherichia coli [6]): 13 mm

SMILES: CCCC(=O)Oc1ccc([C@@H]2CC(=O)c3c(O)c(C)c(OC(=O)CCC)c(C)c3O2)cc1
- MIC (Shigella flexneri): 2 µg/mL (≈ 4.54 µM)
- MIC (Escherichia coli [1]): 2 µg/mL (≈ 4.54 µM)
- MIC (Pseudomonas aeruginosa): 4 µg/mL (≈ 9.08 µM)
